The results in this text go back to ChEMBL document CHEMBL6115030, “Systematic All-Hydrocarbon Stapling Analysis for Cecropin A Generates a Potent and Stable Antimicrobial Peptide” (J Med Chem, 2025).

Active and inactive are the calls of the source. The calls are words filed in the database; no cut-off is given here.

Data set [1] concerns Escherichia coli. The data set can be described thus: In vivo antibacterial activity against Escherichia coli intraperitoneally injected into C57BL/6 mouse peritonitis model assessed as reduction in bacterial load in spleen at 2.5 mg/kg, ip measured after 48 hrs relative to control. It counts as functional, organism-based.
In a further data set the test system is Staphylococcus aureus. Description: Antibacterial activity against Staphylococcus aureus ATCC 25923 assessed as inhibition of bacterial growth measured after 24 hrs by broth microdilution method. It counts as functional. Background: Broth dilution looks for growth in wells or tubes with falling amounts of substance.
Data set [2] is described as follows: Toxicity in C57BL/6 female mouse assessed as haemorrhagic point and blurred white pulp boundary in liver at 25 mg/kg, ip measured during 14 days of study by H and E staining based analysis. To be noted: in vivo, 336 h, time 14 day. The data set is classed as organism-based.
Data set [3] is described as follows: Toxicity in C57BL/6 female mouse assessed as apparent inflammatory exudates ([…], neutrophiles, macrophages) in lungs at 25 mg/kg, ip measured during 14 days of study by H and E staining based analysis. To be noted: in vivo, 336 h, time 14 day. The data set is classed as organism-based.
Data set [4] concerns Mus musculus. The data set can be described thus: In vivo anti-inflammatory efficacy in Escherichia coli intraperitoneally injected into C57BL/6 mouse peritonitis model assessed as reduction in TNF-alpha level in blood at 2.5 mg/kg, ip measured after 48 hrs by ELISA. The data set is classed as functional, organism-based. In general terms: ELISA stands for enzyme-linked immunosorbent assay.

Data set [5] can be described thus: Toxicity in C57BL/6 female mouse assessed as haemorrhagic point and blurred white pulp boundary in spleen at 25 mg/kg, ip measured during 14 days of study by H and E staining based analysis. To be noted: in vivo, 336 h, time 14 day. It counts as organism-based.
Data set [6] deals with Mus musculus. The data set can be described thus: In vivo anti-inflammatory efficacy in Escherichia coli intraperitoneally injected into C57BL/6 mouse peritonitis model assessed as reduction in IL-1beta level in blood at 2.5 mg/kg, ip measured after 48 hrs by ELISA. It counts as functional, organism-based.
Data set [7] in a line: Stability of the compound in human serum assessed as remaining peptide by RP-HPLC analysis. The data set is classed as ADME, cell-free.
The nature of data set [8]: Toxicity in C57BL/6 mouse assessed as death at 50 mg/kg, ip measured on day 4. It counts as organism-based. To be noted: in vivo, 96 h, time 4 day.
A short description of data set [9]: Toxicity in C57BL/6 mouse assessed as death at 25 mg/kg, ip measured during 14 days of study. The data set is classed as organism-based. To be noted: in vivo, 336 h, time 14 day.
In the next data set the test system is Klebsiella pneumoniae. The data set can be described thus: Antibacterial activity against Klebsiella pneumoniae ATCC 13883 assessed as inhibition of bacterial growth measured after 24 hrs by broth microdilution method. The data set is classed as functional.
Data set [10] in a line: Stability of the compound in human serum assessed as retention time by RP-HPLC analysis. It counts as ADME, cell-free.
A short description of data set [11]: Toxicity in C57BL/6 female mouse assessed as juxtaglomerular cells and interstitial fibrous tissues in kidney at 25 mg/kg, ip measured during 14 days of study by H and E staining based analysis. The data set is classed as organism-based. The settings on record: in vivo, 336 h, time 14 day.
Data set [12] is described as follows: Hemolytic activity in human RBC assessed as hemolysis incubated for 1 hr by microplate reader. The data set is classed as toxicity, cell-based, Erythrocyte. The settings on record: red blood cells.
Data set [13] relates to Escherichia coli. Description: In vivo antibacterial activity against Escherichia coli intraperitoneally injected into C57BL/6 mouse peritonitis model assessed as reduction in bacterial load in kidney at 2.5 mg/kg, ip measured after 48 hrs relative to control. The data set is classed as functional, organism-based.
The next data set concerns Pseudomonas aeruginosa. The data set can be described thus: Antibacterial activity against Pseudomonas aeruginosa PAO1 assessed as inhibition of bacterial growth measured after 24 hrs by broth microdilution method. The data set is classed as functional.
The test system of a further data set is Cell membrane. Description: Induction of Outer membrane damage in Escherichia coli assessed as irregular collapsed and rough surface membrane at 5 uM measured after 24 hrs by SEM imaging analysis.
Data set [14] relates to Escherichia coli. Description: In vivo antibacterial activity against Escherichia coli intraperitoneally injected into C57BL/6 mouse peritonitis model assessed as mouse survival at 2.5 mg/kg, ip measured after 48 hrs relative to control. The data set is classed as functional.
In data set [15] the test system is Mus musculus. The data set can be described thus: In vivo anti-inflammatory efficacy in Escherichia coli intraperitoneally injected into C57BL/6 mouse peritonitis model assessed as reduction in IL-6 level in blood at 2.5 mg/kg, ip measured after 48 hrs by ELISA. It counts as functional, organism-based.
Data set [16] relates to Escherichia coli. The data set can be described thus: In vivo antibacterial activity against Escherichia coli intraperitoneally injected into C57BL/6 mouse peritonitis model assessed as reduction in bacterial load in liver at 2.5 mg/kg, ip measured after 48 hrs relative to control. The data set is classed as functional, organism-based.
Data set [17] can be described thus: Toxicity in C57BL/6 mouse assessed as increase in body weight at 25 mg/kg, ip measured during 14 days of study. The data set is classed as organism-based. The settings on record: in vivo, 336 h, time 14 day.
Data set [18] relates to Escherichia coli. Description: In vivo antibacterial activity against Escherichia coli intraperitoneally injected into C57BL/6 mouse peritonitis model assessed as reduction in bacterial load in lung at 2.5 mg/kg, ip measured after 48 hrs relative to control. The data set is classed as functional, organism-based.
Data set [19] in a line: Stability of the compound in human serum assessed as peptide degradation by RP-HPLC analysis. It counts as ADME, cell-free. To be noted: read-out: T50 (converted).
Data set [20] relates to Escherichia coli. The data set can be described thus: In vivo antibacterial activity against Escherichia coli intraperitoneally injected into C57BL/6 mouse peritonitis model assessed as reduction in bacterial load in blood at 2.5 mg/kg, ip measured after 48 hrs relative to control. It counts as functional, organism-based.

As a reminder, the MIC is the least concentration at which growth counts as inhibited. The term HC50 denotes the concentration that lyses half of the red blood cells. “Ac-KWKLFKKIEKVGQNIRDGIIKAGPAVAVVGQATQIAK-NH2”: the outcome in the data set on Escherichia coli [1], in the data set on Mus musculus [4], with Mus musculus [6], with Escherichia coli [13], in the data set with Cell membrane and in the data set with Mus musculus [15] was Active. Also, the outcome in the data set with Escherichia coli [16], in the data set on Escherichia coli [18] and in the data set on Escherichia coli [20] was Active. The MIC is over 100 µM in the data set with Staphylococcus aureus, 12.5 µM in the data set with Klebsiella pneumoniae and 100 µM with Pseudomonas aeruginosa. Further, the Activity entry is “Non-toxic” in data set [2]; “Non-toxic” in data set [3]; “Non-toxic” in data set [5]; “Toxic” in data set [8]; “Non-toxic” in data set [9]; “Non-toxic” in data set [11]. Besides, the results for the Activity (with Escherichia coli [14]; in data set [17]) were 50% and “Toxic”, respectively. Besides, in data set [7], the Stability is over 50%. The Retention_time in data set [10] is reported as 21.69 min. Also, in data set [12], the concentration for 50% haemolysis (HC50) at 1 h is 174 µM. For the same substance, the half-life in data set [19] is 2.17 h.
